Experimental data reported in PubChem BioAssay AID504544 (Sanford-Burnham Center for Chemical Genomics, 2011).
The source made the active and inactive calls. How the calls were made is not given here.

Tested on: S. cerevisiae tim23-1 mutant growth, luminescence
Assay: tim23-1 yeast growth suppression potency – luminescence, uHTS hits, counter-screen for tim10-1 yeast inhibitor project, dose response (AID 504544)

First: Cc1cccc(NC(=O)c2ccc([N+](=O)[O-])s2)n1
Second: CNC(=O)c1nnsc1S(=O)(=O)c1ccc(Cl)cc1
The IC50 of the first is 7.4-fold lower: 1.55 µM for the first, 11.5 µM for the second. The first is the more potent here.

Going from `CC(C)c1nnc(NC(=O)CCS(=O)(=O)c2nc(-c3cccs3)cc(C(F)(F)F)n2)s1` to `CC(C)(C)OC(=O)N[C@@H](Cc1ccccc1)c1nnc(S(=O)(=O)Cc2cccc(F)c2)o1`, the IC50 falls from 8.43 µM to 2.28 µM (3.7-fold).

`CCOC(=O)c1c(CSc2ccc(C)cc2)n(C)c2cc(Br)c(O)c(CN(C)C)c12` and `Cc1ccc(CNC(=O)c2ccc(Cn3nc(C)c(Cl)c3C)o2)cc1` are within 1.5-fold of each other in IC50: 19.9 µM for the first, 17.4 µM for the second.

Going from `CCCCc1ccc(NC(=S)Nc2ccc(Nc3ccc(OC)cc3)cc2)cc1` to `COc1ccc(/C(C)=N/NC(=S)NCCc2ccccc2)cc1`, the IC50 falls from 30.1 µM to 19.5 µM (1.5-fold). The second is the more potent here.

First: Cc1ccc(S(=O)(=O)c2nc(S(C)(=O)=O)sc2N2CCCCC2C)cc1 (configuration not stated)
Second: Cc1ccc(NC(=O)c2cc(S(=O)(=O)NCCC3=CCCCC3)ccc2F)cc1
The IC50 of the first is 2.8-fold lower: 11.7 µM for the first, 33.2 µM for the second. The first is the more potent here.

Compared with `COc1ccc(-n2cc(-c3ccccc3)c3c(=S)nc[nH]c32)cc1`, `CCOc1ccc(-n2cc(-c3ccccc3)c3c(=O)[nH]cnc32)cc1` is 2.8-fold lower in IC50: 38.4 µM for the first, 13.8 µM for the second.

`COc1ccc(C(=O)Nc2ccc(-n3nncc3C(C)(C)C)cc2)cc1` and `COc1ccc(C(=O)O/N=C(\N)c2ccc(Cl)cc2)cc1` are within 1.5-fold of each other in IC50: 8.87 µM for the first, 7.13 µM for the second.

`CCOc1ccccc1N1C(=O)CC(Sc2n[nH]c(-c3ccccc3)n2)C1=O` (configuration not stated) and `O=C1CC(Sc2nnnn2-c2ccccc2)C(=O)N1c1cccc(Cl)c1` (configuration not stated) are within 1.5-fold of each other in IC50: 4.1 µM for the first, 2.92 µM for the second.

`c1ccc(Nc2cccc(Nc3ccccc3)n2)cc1` and `c1ccc(Nc2cccc(Nc3ccccc3)c2)cc1` are within 1.5-fold of each other in IC50: 9.11 µM for the first, 11 µM for the second.

Compared with `Cc1nc(Nc2ccccc2)sc1-c1ccccc1`, `O=C(/C=C\c1ccc(-c2ccccc2)o1)c1ccccc1` is 9.6-fold lower in IC50: 29 µM for the first, 3.01 µM for the second. The second is the more potent here.

Compared with `N=C(N)c1ccc(/C=C/c2ccc(C(=N)N)cc2O)cc1`, `COc1ccc(C(=O)O/N=C(\N)c2ccc(Br)cc2)cc1` is 2.2-fold higher in IC50: 6.44 µM for the first, 14.4 µM for the second. The first is the more potent here.

Compared with `Nc1nc(-c2ccc(Br)cc2)cs1`, `O=C(OCn1ncc(Br)c(Br)c1=O)c1ccccc1Cl` is 8.5-fold lower in IC50: 17.6 µM for the first, 2.07 µM for the second. The second is the more potent here.

Going from `Clc1ccccc1OCc1nnc(-c2ccccc2Br)o1` to `N/C(=N\OC(=O)CCCc1ccccc1)c1ccccc1Cl`, the IC50 falls from 32.9 µM to 14 µM (2.4-fold).

Compared with `O=C(NC(=S)Nc1ccccc1N1CCCC1)c1ccc([N+](=O)[O-])cc1`, `CC(C)C(=O)N1CCN(c2ccccc2NC(=O)c2ccc([N+](=O)[O-])o2)CC1` is 2.2-fold lower in IC50: 19.3 µM for the first, 8.89 µM for the second.

First: O=C(c1cc(COc2ccc(F)cc2Cl)on1)N1CCN(c2cnccn2)CC1
Second: Cc1nonc1C1CCCN1C(=O)c1cc(COc2cccc(C(F)(F)F)c2)on1 (configuration not stated)
The IC50 of the first is 3.5-fold lower: 5.45 µM for the first, 19.2 µM for the second.

Compared with `CC(C)CN(CC(C)C)C(=S)Nc1ccc(Cl)cc1`, `CCCCNC(=S)Nc1ccc(C(F)(F)F)cc1` is 4.6-fold lower in IC50: 55.2 µM for the first, 12 µM for the second.

Compared with `CCCCCCCCCCOC(=O)Cn1c(COc2ccccc2OC)[n+](C)c2ccccc21`, `COc1ccc(/C=C/C(=O)c2ccccc2)cc1Cn1nnc2ccccc21` is 1.5-fold lower in IC50: 12 µM for the first, 7.94 µM for the second. The second is the more potent here.

`COc1ccc(Br)cc1[C@H]1[C@@H]2C=CCC[C@@]2(C)C(=O)N1Cc1ccccc1` and `COc1ccc(Br)cc1[C@H]1[C@H]2C=CC[C@@H](C)[C@@H]2C(=O)N1Cc1ccccc1` are within 1.5-fold of each other in IC50: 14.3 µM for the first, 16.3 µM for the second.

`Cc1ccc(NC(=S)Nc2ccc(Cl)c(Cl)c2)c(OC(F)F)c1` and `COc1ccc(Cl)cc1NC(=S)NCCc1ccc(F)cc1` are within 1.5-fold of each other in IC50: 14.4 µM for the first, 12.5 µM for the second.

Going from `COc1ccc2cc3cc(C(=O)NCCN4CCc5ccccc5C4)oc3nc2c1` to `Nc1c(C(=O)Nc2ccccc2)c2nc3ccccc3nc2n1CCCN1CCOCC1`, the IC50 rises from 3.34 µM to 12.5 µM (3.7-fold). The first is the more potent here.

Going from `N/C(Cc1ccc(Cl)cc1)=N\OC(=O)c1ccc2ccccc2c1` to `Cc1ccc(/C(N)=N/OC(=O)C(C)c2ccc([N+](=O)[O-])cc2)cc1` (configuration not stated), the IC50 rises from 0.38 µM to 41.9 µM (110-fold).

First: O=C1C2C3C=CC(CO)(O3)C2C(=O)N1c1ccccc1-c1ccccc1 (configuration not stated)
Second: C[C@@H]1CC=C[C@H]2[C@H]1C(=O)N(Cc1ccccc1)[C@H]2c1ccc(-c2ccoc2)cc1F
The IC50 of the first is 7-fold lower: 1.83 µM for the first, 12.9 µM for the second.

`O=c1c2ccccc2nc(/C=C/c2ccc([N+](=O)[O-])o2)n1CCCO` and `Cn1c(/C=C/c2ccc([N+](=O)[O-])o2)nc2ccccc2c1=O` are within 1.5-fold of each other in IC50: 5.81 µM for the first, 6.28 µM for the second.

Compared with `CCCCNC(=S)N=Nc1c(O)[nH]c2ccccc12`, `CCCOc1ccc(CN(CCC#N)C(=S)NC(=O)c2ccccc2)cc1` is 4.6-fold higher in IC50: 4.92 µM for the first, 22.7 µM for the second. The first is the more potent here.

Going from `CC1=C/C(=N\OS(=O)(=O)c2ccccc2)C(C)=CC1=O` to `CC1=C/C(=N\OS(=O)(=O)c2ccccc2)C=CC1=O`, the IC50 rises from less than 0.2 µM to 0.27 µM. The first is the more potent here.

Going from `Cc1cc(/C=C\c2ccc3cc(N(C)C)ccc3[n+]2C)c(C)n1-c1ccccc1` to `C=CC(=O)Oc1ccc(N2Cc3ccccc3C2=O)cc1`, the IC50 falls from 5.95 µM to 3.33 µM (1.8-fold).

First: O=C(/C=C/c1ccc2c(c1)OCCCO2)c1ccccc1O
Second: CC(C)NC(=S)N/N=C1\CCCCc2ccccc21
The IC50 of the first is 1.7-fold higher: 18.3 µM for the first, 10.9 µM for the second.

Compared with `CCCOc1ccc(N2C(=O)CC(N3CCC(O)(c4cccc(C(F)(F)F)c4)CC3)C2=O)cc1` (configuration not stated), `COc1cc(N=c2ssnc2Cl)c(OC)cc1Cl` is 2-fold lower in IC50: 7.41 µM for the first, 3.77 µM for the second. The second is the more potent here.

With `N/C(=N\OC(=O)c1ccc(Cl)cc1)c1ccc(Cl)cc1` the IC50 was > 100 µM (inactive).
